Measured values published in PubChem BioAssay AID1159564 (GlaxoSmithKline (GSK), 2015).
The source made the active and inactive calls. How the calls were made is not given here.

System: L. donovani-infected THP-1 macrophages, intracellular amastigote imaging
Assay: intracellular L. donovani amastigote inhibition, imaging, THP-1 host macrophages, host toxicity (AID 1159564)
[1] = measured here: THP-1 host cell toxicity
[2] = measured here: amastigotes per macrophage

Row | SMILES | IC50 | IC50 [1] [µM] | IC50 [2] [µM]
1 | COc1ccc(S(=O)(=O)Nc2ccccc2OC)cc1NC(=O)CCCc1c[nH]c2ccccc12 | > 50 µM (inactive) | > 50 | > 50
2 | N#CN1CC[C@@H](NC(=O)Nc2ccccc2Oc2ccccc2)C1 | 5 µM | 25 | 4
3 | CCC(c1ccc(F)cc1)n1cncc1-c1cnn(C)c1 (stereo not given) | > 50 µM (inactive) | > 50 | > 50
4 | CCC1Oc2cc(S(=O)(=O)N(C)CC(=O)N3CCc4ccccc4C3)c(C)cc2NC1=O (stereo not given) | > 50 µM (inactive) | > 50 | 32
5 | COC(=O)c1ccc(-c2cnc3ccc(NCc4ccccn4)nn23)cc1 | > 50 µM (inactive) | 13 | 16
6 | CN(CC1CCCO1)S(=O)(=O)c1ccc(C(=O)Nc2nc(-c3ccccn3)cs2)cc1 (stereo not given) | 6.3 µM | 7.9 | 3.2
7 | Cc1ccc(NC(=O)c2ccnc(N3CCCC3)c2)cc1-c1ccsc1C(N)=O | > 50 µM (inactive) | > 50 | > 50
8 | COc1ccc(-c2nc3ccncc3c(=O)n2CCOc2ccccc2)cc1 | > 50 µM (inactive) | > 50 | > 50
9 | Cc1[nH]n2c(=O)c3c(nc2c1-c1ccc(Br)cc1)CCCC3 | > 50 µM (inactive) | > 50 | 40
10 | c1cc(-c2ncc(-c3ccn[nH]3)s2)ccn1 | > 50 µM (inactive) | > 50 | 10
11 | Cn1nc([N+](=O)[O-])nc1N1CCCCC1 | > 50 µM (inactive) | > 50 | > 50
12 | Cc1cc(C)n(-c2nc(NC(C)C)nc(NC(C)(C)C)n2)n1 | 5 µM | 6.3 | 4
13 | O=c1[nH]c(C=Cc2cccc(OCCOc3ccccc3)c2)nc(O)c1[N+](=O)[O-] | > 50 µM (inactive) | > 50 | > 50
14 | COc1cccc2sc(CN(C)C(=O)C3CNCCN3c3ccc(F)cc3)c(C)c12 (stereo not given) | 6.3 µM | 13 | 4
15 | Cc1ccccc1NS(=O)(=O)c1ccc2[nH]cc(C(=O)NC3CCCCC3)c(=O)c2c1 | 40 µM | 32 | 40
16 | O=C(CN(Cc1ccccn1)Cc1ccccn1)NCc1ccc2c(c1)OCO2 | 7.9 µM | > 79 | 6.3
17 | O=C(Nc1ccc(-c2nc3ccccc3c(=O)[nH]2)cc1)c1cccs1 | > 50 µM (inactive) | > 50 | > 50
18 | c1ccc2sc(Nc3nc4ncccc4[nH]3)nc2c1 | 2.5 µM | 16 | 1.3

Row | SMILES | IC50 | IC50 [1] [µM] | IC50 [2] [µM]
19 | Cc1[nH]nc(-c2nc3ccccc3[nH]2)c1C(=O)NC1CCCNC1 (stereo not given) | 6.3 µM | 1.6 | 6.3
20 | COc1ccc(CN(C)Cc2ccncc2)cc1-c1ccc(S(=O)(=O)NC2CCC2)s1 | > 50 µM (inactive) | 20 | 16
21 | CN(C)S(=O)(=O)c1cccc(CSc2nnc(-c3ccc4c(c3)OCO4)o2)c1 | 2 µM | > 50 | 0.63
22 | COc1ccc(C)cc1-c1csc(NC(=O)C(C)n2ccnc2)n1 (stereo not given) | > 50 µM (inactive) | > 50 | > 50
23 | COc1ccc(Nc2nc(-c3ccccn3)cc(N3CCCC(O)C3)n2)cc1 (stereo not given) | 1 µM | 25 | 0.79
24 | O=C(Nc1cccc(Cl)c1)Nc1ccc([N+](=O)[O-])cc1Cl | 3.2 µM | 25 | 2
25 | COc1cccc(Nc2cc(C)nc(-c3ccccn3)n2)c1 | 2 µM | > 50 | 1.3
26 | CC1CN(S(=O)(=O)c2ccc(NC(=O)c3cc(C4CC4)nc4c3cnn4C(C)C)cc2)CC(C)O1 (stereo not given) | > 50 µM (inactive) | 10 | > 50
27 | C=CC[C@@H]1CC=C[C@@H](C)N1C(=O)CCc1nnc(-c2ccc3c(c2)OCO3)o1 | 7.9 µM | 13 | 3.2
28 | CC(C)CC(=O)Nc1cc(C2CC2)nn1-c1nc2c(c(=O)[nH]1)CCCC2 | 7.9 µM | 5 | 5
29 | CC(=O)Nc1ccc(-c2noc(CC3CCCN(Cc4cccc(F)c4C)C3)n2)cc1 (stereo not given) | 32 µM | > 50 | 13
30 | O=C(NCCc1ccccc1Cl)c1cccn1-c1cccnc1 | > 50 µM (inactive) | > 50 | > 50
31 | O=c1oc2ccccc2n1C1CCN(Cc2ccccc2-c2cccnc2)CC1 | > 50 µM (inactive) | 13 | 6.3
32 | O=C(NNC(=O)c1ccccn1)c1ccc(-c2ccccc2)cc1 | 6.3 µM | 3.2 | 3.2
33 | Cc1ccc(S(C)(=O)=O)cc1Nc1nccc(-c2sc(N)nc2-c2ccccc2)n1 | 5 µM | 20 | 2.5
34 | Cc1ccc2nc(N(Cc3cccnc3)C(=O)CCc3ccccc3)sc2c1 | > 50 µM (inactive) | > 50 | > 50
35 | O=C1NCCn2ccc(Nc3nc(NC4CCC(O)CC4)ncc3Cl)c21 (stereo not given) | 1 µM | 0.4 | 0.63
